Measurements taken from patent publication US20090318492A1, “INDOLE COMPOUNDS HAVING C4-ACIDIC SUBSTITUENTS AND USE THEREOF AS PHOSPHOLIPASE-A2 INHIBITORS” (priority 2005, published 2009).

Test system: LDL receptor knockout mice (B6.129S7-Ldlrtm1Her)
Assay: Example 11 LDL receptor knockout mice
Type: in vivo, mouse
Conditions: low fat control diet (D12328) with vs without test article
Text: Mice lack an enzyme found in humans, cholesterol ester transfer protein (CETP), which is responsible for the transfer of cholesterol from high density lipoproteins (HDL) to the ApoB-containing lipoproteins such as very low density lipoproteins (VLDL) and low density lipoproteins (LDL). Consequently, LDL cholesterol levels in wild-type mice are very low compared to those seen in humans. The low density lipoprotein receptor (LDLR) is involved with clearing LDL and lipoprotein remnants containing apoE. If the LDLR is inactivated, LDL cholesterol levels rise to levels seen in humans. On a normal rodent diet, the LDL cholesterol levels in LDLR deficient mice are elevated compared to wild-type mice. […]
In these studies and the accompanying figures, Diet D12328 from Research Diets is referred to as the “Low Fat” or Control diet, while Diet D12079B from Research Diets is referred to as the “Western” diet. […] The Test Article content was calculated such that ad libitum consumption by the animals would deliver doses (in mg of Test Article per Kg animal weight per day) approximating those listed in Table 6.
Animals were maintained on the diets for twelve weeks. Body weights were recorded weekly. […] The serum was analyzed for total cholesterol, LDL cholesterol, HDL cholesterol, and triglycerides (TG). […]

Cc1c(C(=O)C(N)=O)c2c(OCC(=O)NS(=O)(=O)CCCC(=O)O)cccc2n1Cc1ccccc1 [ILY-IV-40, 4-[2-(3-Aminooxalyl-1-benzyl-2-methyl-1H-indol-4-yloxy)-acetylsulfamoyl]-butyric acid]
effect in animals fed a low fat control diet: No or little effect
